Series [1] addresses T1, ^24-108MDMX (Homo sapiens, UniProt O15151).
T1 construct: ^24-108MDMX, and a fluorescently tagged p53-derived peptide
T1 sequence (O15151 24-108): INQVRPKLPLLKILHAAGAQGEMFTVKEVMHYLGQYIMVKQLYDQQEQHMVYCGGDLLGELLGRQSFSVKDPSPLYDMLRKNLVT
Briefly: FP-based competitive binding assay. As to conditions: MDMX 40 nM, fluorescently tagged p53 peptide 20 nM, PBS pH 7.4, 30 min room temperature; mean of three independent measurements. The protocol: (§1) An FP-based competitive or binding assay was established using ^25-109MDM2, ^24-108MDMX, and a fluorescently tagged p53-derived peptide as previously described. [34]-[36] For dose-dependent competitive binding experiments, MDM2 or MDMX protein (40 nM) was first incubated with TAMRA-p53 peptide (20 nM) in PBS (pH 7.4) on a Costar 96-well plate, to which a serially diluted solution of test peptide was added to a final volume of 125 μL. After 30 min of incubation at room temperature, the FP values were measured at λex = 530 nm and λem = 580 nm on a Tecan Infinite M1000 plate reader. For binding experiments, FITC-labeled SPMI-HIF2-1 (20 nM) was incubated with different concentrations of MDM2, MDMX, and VHL proteins. Curve fitting was performed using GraphPad Prism software, and Ki values were calculated as described previously. Three replicates and three independent experiments were performed.

The nature of series [2]: α-Helicity by CD spectroscopy. The class given is physicochemical. To be noted: PB pH 7.2, 10-50 µM peptide, 20°C, calculated from [θ]222. On the procedure:
Peptides were dissolved in PB (pH = 7.2) to concentrations ranging from 10 to 50 µM. CD spectra were obtained on a Jasco J-715 spectropolarimeter at 20°C. The spectra were collected using a 0.1 cm path length quartz cuvette with the following measurement parameters: wavelength, 185-255 nm; step resolution, 0.1 nm; speed, 20 nm/min; accumulations, 6; bandwidth, 1 nm. The helical content of each peptide was calculated as reported previously.

Series [3] concerns HCT116 p53^+/+ cells. Kind of series: Cell viability assay (CCK-8). The series is classed as cell-based, human. As to conditions: CCK-8, 72 h incubation, absorbance 450 nm; read-out: IC50 (μM) HCT116 p53^+/+. On the procedure: (§2) The human colon carcinoma cell line HCT116 p53^+/+ was obtained from the Cell Bank of the Chinese Academy of Sciences (Shanghai, China). HCT116 p53^-/- cells were generously provided by Prof. Vogelstein of Johns Hopkins University. Both cell lines were cultured in McCoy's 5A medium (Gibco, USA) containing 10% FBS, 100 units/ml penicillin, and 100 μg/ml streptomycin at 37 °C in a humidified incubator containing 5% CO2. Cell viability was measured using a Cell Counting Kit-8 (CCK-8) (Dojindo, Kumamoto, Japan) according to the manufacturer's instructions. In brief, the cells (5 × 10^3 cells/well in […] medium) were cultured for 24 h in 96-well microplates in a humidified 5% CO2 incubator at 37 °C and then treated with varying concentrations of compounds or 0.1% DMSO vehicle control.

The test system of series [4] is HCT116 p53^-/- cells. Briefly: Cell viability assay (CCK-8). The class given is cell-based, human. As to conditions: CCK-8, 72 h incubation, absorbance 450 nm; read-out: IC50 (μM) HCT116 p53^-/-. The protocol:
as §2

A short description of series [5]: Pharmacokinetic study. As to conditions: mouse, iv, male ICR mice, 1.8 mg/kg single i.v. tail vein, plasma, UPLC-ESI-QqQ-MS, n = 5; for Cmax: mean; for half-life: read-out: half-life (t1/2) (converted). The class given is in vivo. On the procedure: The peptides (1.8 mg/kg) were individually dosed in mice intravenously via tail vein injection and the blood samples were collected from the orbital venous plexus at 0, 0.5, 1, 2, 4, 6, 10, 24, and 48 h. All blood samples were centrifuged at 3000 rpm for 10 min, and the obtained plasma samples were immediately frozen at -80 °C until use. The standard curve was established as follows: Stock solutions of PMI-HIF1-1 and SPMI-HIF2-1 dissolved in acetonitrile were spiked into control plasma at final concentrations of 4000, 2000, 1000, 500, 250, 125, 62.5, 31.25, 15.625, 7.8125, 3.90625, 1.953125, and 0.9765625 ng/ml. […] Plasma samples (30 μL) were treated with 90 μL acetonitrile for protein precipitation. Then all samples were vortexed for 2 min and centrifuged for 15 min at 13000 rpm and 4°C. The supernatants were analyzed by ultraperformance liquid chromatography-electrospray ionization-tandem triple quadrupole mass spectrometry (UPLC-ESI-QqQ-MS, Shimadzu 8040). The system was equipped with an XBridge BEH C18 column (2.5 μm, 2.1×100 mm; Waters, Milford, MA, USA). The column temperature was set at 35°C. The injection volume was 4 μl. […] The plasma concentration at each time point was calculated from the extracted peak area of the same mass peaks of each peptide using the corresponding standard curve.

Series [6] addresses T2, ^25-109MDM2 (Homo sapiens, UniProt Q00987).
T2 construct: established using ^25-109MDM2, ^24-108MDMX
Briefly: FP-based competitive binding assay. To be noted: MDM2 40 nM, fluorescently tagged p53 peptide 20 nM, PBS pH 7.4, 30 min room temperature; mean of three independent measurements. The protocol:
as §1

Series [7] deals with α-Chymotrypsin. Kind of series: Proteolytic stability against chymotrypsin. As to conditions: chymotrypsin 5 ng/μl (10 μl) added to 1 ml of 1 mM peptide, PBS 50 mM pH 7.4, 2 mM CaCl2, 25°C, HPLC, within 10 min, read-out: peptide digested within 10 min. The series is classed as in vitro ADME. The protocol: Peptides were dissolved in PBS (50 mM, pH = 7.4) to a final concentration of 1 mM. α-Chymotrypsin was dissolved in PBS (50 mM, containing 2 mM of CaCl2, pH = 7.4) to a final concentration of 5 ng/μl. Then the peptide solutions (1 ml) were incubated with […] (10 μl) at 25°C. Samples were taken at 0, 5, 30, 60, 90, and 120 min and reactions were quenched with 20 μL of hydrochloric acid (1 M). The solution of the trypsin peptide fragments was monitored by HPLC at different time points to determine the fraction of protease degradation.

Series [8] in a line: circular dichroism. As to conditions: phosphate buffer (PB); pH 7.2; 20 °C; 10-50 uM. On the technique in general: CD spectra are sensitive to the conformation of chiral molecules.

pKi: −log10 of the molar value. “And” between values parts separate entries of the source, which are not always exact repeats. Identical values can stand only once. Bounds are passed on as bounds.

Broadly, the pKi is −log10 of the Ki, conventionally taken in molar units. As usually defined, the Cmax is the peak of the concentration-time curve. By AUC(0-inf) is commonly meant total exposure, with the tail of the curve extrapolated. By MRT is commonly meant a mean duration of stay, worked out from the concentration-time curve. As for `CC(=O)N[C@H](C(=O)N[C@@H](CO)C(=O)N[C@@H](Cc1ccccc1)C(=O)N[C@]1(C)CCCCCCC=CCCC[C@@](C)(C(N)=O)NC(=O)[C@H](CC(C)C)NC(=O)[C@H](CC(C)C)NC(=O)[C@H](C)NC(=O)[C@H](Cc2c[nH]c3ccccc23)NC(=O)[C@H](Cc2ccc(O)cc2)NC(=O)[C@H](CCC(=O)O)NC1=O)[C@@H](C)O` [SPMI2], the pKi in series [1] is 6.21 and 6.54. For the same molecule, the “α-helicity (%)” value in series [2] is recorded as 5%. In series [3], the IC50 worked out at 28.4 µM. Moreover, in series [4], the IC50 was more than 100 µM. For the same molecule, in series [5], the Cmax is 30000 ng/mL, the AUC(0-inf) came out at 78600 ng·h/mL, the MRT turned out to be 10.9 h and the half-life is 7.9 h.
`CC(=O)N[C@H](C(=O)N[C@@H](CO)C(=O)N[C@@H](Cc1ccccc1)C(=O)N[C@@H](C)C(=O)N[C@@H](CCC(=O)O)C(=O)N[C@@H](Cc1ccc(O)cc1)C(=O)N[C@@H](Cc1c[nH]c2ccccc12)C(=O)N[C@@H](C)C(=O)N[C@@H](CC(C)C)C(=O)N[C@@H](CC(C)C)C(=O)N[C@@H](CO)C(=O)NCCOCC(=O)N[C@@H](CC(C)C)C(=O)N[C@@H](C)C(=O)N1C[C@H](O)C[C@H]1C(=O)N[C@@H](Cc1ccc(O)cc1)C(=O)N[C@@H](CCC(C)C)C(=O)N1CCC[C@H]1C(N)=O)[C@@H](C)O` [PMI-HIF1-1]: in series [1], the pKi was 6.54 and 6.21. The molecule further gave a pKi in series [6] of 6.35. Also, the “α-helicity (%)” value in series [2] is given as 17%. The metabolised at 10 min, 1 mM in series [7] was more than 80%. In addition, in series [3], the IC50 was more than 100 µM. For the same molecule, in series [4], the IC50 is more than 100 µM. The molecule further registered a helicity in series [8] of 17%. In series [5], the concentration peaked (Cmax) at 14700 ng/mL, the AUC(0-inf) was 8600 ng·h/mL, the MRT came to 0.7 h and the half-life was 1.3 h.
